Here are results for four molecules from ChEMBL document CHEMBL1629648, “New composite genetic element of the Tn916 family with dual macrolide resistance genes in a Streptococcus pneumoniae isolate belonging to clonal complex 271” (2009).

In the test the test system is Streptococcus pneumoniae. In words: Antimicrobial activity against multidrug resistant Streptococcus pneumoniae serotype 19F S43 carring erm(B),mef(E) and tet(M) gene. It is filed as functional.

≈ marks a conversion by molar mass, not a printed value.

`CCC[C@@H]1C[C@@H](C(=O)N[C@@H]([C@H]2O[C@H](SC)[C@H](O)[C@@H](O)[C@H]2O)[C@H](C)Cl)N(C)C1` [CLINDAMYCIN] had a minimum inhibitory concentration (MIC) greater than 256 µg/mL. The molecule `CC[C@H]1OC(=O)[C@H](C)[C@@H](O[C@H]2C[C@@](C)(OC)[C@@H](O)[C@H](C)O2)[C@H](C)[C@@H](O[C@@H]2O[C@H](C)C[C@H](N(C)C)[C@H]2O)[C@](C)(O)C[C@@H](C)C(=O)[C@H](C)[C@@H](O)[C@]1(C)O` [ERYTHROMYCIN] gave a minimal inhibitory concentration (MIC) greater than 256 µg/mL. As to `CC1(C)S[C@@H]2[C@H](NC(=O)Cc3ccccc3)C(=O)N2[C@H]1C(=O)O` [PENICILLIN G], the lowest concentration to inhibit growth (MIC) was 4 µg/mL (≈ 12 µM). `CN(C)[C@@H]1C(O)=C(C(N)=O)C(=O)[C@@]2(O)C(O)=C3C(=O)c4c(O)cccc4[C@@](C)(O)[C@H]3C[C@@H]12` [TETRACYCLINE] gave a minimum inhibitory concentration (MIC) of 16 µg/mL (≈ 36 µM).

In general, MIC refers to the lowest concentration found to suppress growth. Low values mean inhibition by little substance, high ones a need for much substance.
